# Reference: patent US12104168B2, “Cell culture medium” (Agency For Science, Technology And Research, priority 2018, dated 2024)
# Tested on: hepSC
# Assay: Dasatinib withdrawal or replacement in hSC media, maintenance of hepSC stem cell state
# Settings: for survival of hepatic stem cells: ABL kinase inhibitor together with SRC inhibition, replacing Dasatinib; for rescue of phenotype after subculturing / rescue of cell phenotype: added instead of Dasatinib; for rescue of phenotype after subculturing: 48 hr after subculturing; for rescue of cell phenotype: 6 days after withdrawal; for rescue of cell morphology changes: replacement of Dasatinib with the inhibitor, 48 hrs
smiles,measurement,value
Cc1ccc(NC(=O)c2ccc(CN3CCN(C)CC3)cc2)cc1Nc1nccc(-c2cccnc2)n1 [Imatinib],survival of hepatic stem cells,seems to improved survival of hepatic stem cells
same,rescue of phenotype after subculturing,did not rescue the phenotype
same,rescue of cell phenotype,did not rescue the cell phenotype
same,rescue of cell morphology changes,did not rescue cell morphology changes
Cc1cn(-c2cc(NC(=O)c3ccc(C)c(Nc4nccc(-c5cccnc5)n4)c3)cc(C(F)(F)F)c2)cn1 [Nilotinib],survival of hepatic stem cells,seems to improved survival of hepatic stem cells
same,rescue of phenotype after subculturing,did not rescue the phenotype
same,rescue of cell phenotype,did not rescue the cell phenotype
same,rescue of cell morphology changes,did not rescue cell morphology changes
